Results taken from patent publication US11124483B2, “HER3 ligands and uses thereof” (THE REGENTS OF THE UNIVERSITY OF CALIFORNIA, priority 2015, dated 2021).

Experiments:
[1] = biological target: Src kinase (UniProt P00523); test: In vitro Src kinase assay (30-min); assay type: biochemical; conditions: percent activity vs. DMSO control
Procedure: In vitro Kinase Assays. In vitro kinase assays with the HER2 kinase domain (SignalChem) were performed in triplicate as follows. To 9 μL of a 2.5× solution of kinase and substrate in reaction buffer was added 3 μL of a 5×DMSO or inhibitor dilution in 10% DMSO:water. The inhibitor/kinase solution was incubated at room temperature for 10 minutes. The kinase assay was initiated by the addition of 3 μL of a 5× solution of ATP, and ran for 15 minutes. The final reaction conditions were 50 mM Tris (pH7.4), 5 mM MnCl2, 0.01% Tween-20, 2 mM DTT, 100 μM E4Y substrate (SignalChem), 15 nM HER2, 2% DMSO, 50 μM ATP, and 1 μCi γ^32P-ATP. After 15 minutes, 3 μL of each reaction was pipetted onto phosphocellulose sheets (P81, Whatman) and allowed to dry. The sheets were then washed 4×5 min with a solution of 0.5% phosphoric acid, dried, and exposed to a phosphor screen overnight. Src Kinase assays were conducted as previously described^2. Phosphorimaging was conducted on a Typhoon 9500, image intensities were quantified in ImageQuant 5.2, normalized to the DMSO control and plotted in GraphPad Prism 6.

[2] = biological target: T1, HER3 TKD (Homo sapiens, UniProt P21860); test: HER3 TKD Thermofluor assay; assay type: binding; conditions: 20 μM inhibitor, 2 μM kinase, vs DMSO
T1 construct: made in house
T1 sequence (P21860 709-966 limits assumed): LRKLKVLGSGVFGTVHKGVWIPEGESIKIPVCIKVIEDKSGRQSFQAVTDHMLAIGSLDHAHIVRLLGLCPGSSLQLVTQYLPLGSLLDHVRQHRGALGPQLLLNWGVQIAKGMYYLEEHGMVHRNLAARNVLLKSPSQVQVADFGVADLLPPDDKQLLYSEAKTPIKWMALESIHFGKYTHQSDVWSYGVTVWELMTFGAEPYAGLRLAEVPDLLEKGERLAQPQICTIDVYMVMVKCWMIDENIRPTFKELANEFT
Procedure: HER3 Thermofluor Assay. Wt HER3 TKD was purified according to the previously published protocol^1. Thermofluor reactions were performed in duplicate and set up as follows. 1 μL of an inhibitor or DMSO dilution in 40% DMSO:water was added to 19 μL of the HER3 kinase domain in reaction buffer. The final reaction solution contained 100 mM MOPS, 200 mM NaCl, 5% glycerol, 5 mM MgCl2, 0.1 mM DTT, 5×SYPRO Orange, 2 μM kinase, 2% DMSO and 20 μM inhibitor in the wells of a 96-well, low profile, white, PCR plate (USA scientific). The solution was pipetted up and down to mix, sealed with TempAssure clear PCR flat caps (USA Scientific), centrifuged at 500×g for 30 s, and heated in a Stratagene Mx3005P RT-PCR machine from 25° C. to 95° C. in 0.5° C. increments every 30 s after an initial incubation at 25° C. for 10 min. Fluorescence was measured at the end of each 30 s period with an excitation wavelength of 492 nm and an emission wavelength of 610 nm. To obtain the melting temperature, fluorescent signals were normalized to the maximum fluorescent signal for that well. Values after the well had reached a maximum signal were discarded and the signals were fit to the Boltzmann equation in Graphpad Prism 6. ΔTm was calculated as the difference in melting temperature between the compound-treated kinase compared to the DMSO control.

Row | Structure (SMILES) | IC50 [1] | binding to HER3 TKD (percent unfolded protein vs. temperature) [2]
1 | COc1cc2ncc(C#N)c(Nc3ccc(Oc4cccc(NC(=O)Nc5cccc(C(F)(F)F)c5)c4)cc3)c2cc1OC [50A, 1-(3-(4-((3-cyano-6,7-dimethoxyquinolin-4-yl)amino)phenoxy)phenyl)-3-(3-(trifluoromethyl)phenyl)urea] | 3.3 nM | particularly tight binding
2 | COc1cc(Nc2c(C#N)cnc3cc(OCCCN4CCN(C)CC4)c(OC)cc23)c(Cl)cc1Cl [bosutinib, reference compound] | 3.3 nM | –
